Patent US5866587A, “Metalloprotease inhibitors” (Adir Et Compagnie, priority 1996, dated 1999)
Counter-ions that a name gives are not always drawn.

Columns and labels:
guinea pig cartilage [1] = test: Degradation of the cartilaginous matrix induced by IL-1β: degradation of collagen (OH-proline release); type: cell-based; conditions: IL-1β (10 mg/ml) and plasminogen (30 μg/ml), 3 days; for inhibition at 1 µM: Cavia porcellus, 72 h, 10^-6 M, read-out: collagen % protection at 10^-6 M
Protocol: (§1) The compounds of the invention were studied in a model of destruction of the cartilaginous matrix induced by IL-1β. The trials carried out on guinea pig cartilage relate:
on the one hand, to the degradation of collagen: colorimetric assay according to the Grant technique (Grant R. A. Estimation of OH-proline by the autoanalyser, J. Clin. Path. 1964, 17, 685) of the OH-proline fraction released by the tissue brought into contact, for 3 days, with IL-1β ([…]) and of plasminogen (30 μg/ml),
(§2) The compounds of the invention were studied by addition to the culture medium for the 3 days of assay. […] By way of example, the activities exerted by some compounds of the invention are the following: […]

guinea pig cartilage [2] = test: Degradation of the cartilaginous matrix induced by IL-1β: degradation of proteoglycans (35SO4 glycosaminoglycan release); type: cell-based; conditions: IL-1β (10 mg/ml), 3 days; for inhibition at 30 µM: Cavia porcellus, 72 h, 3 × 10^-5 M, cartilage labeled with 35SO4, read-out: proteoglycans % protection at 3 × 10^-5M
Protocol: as §1
on the other hand, to the degradation of proteoglycans: radioisotopic measurement of the glycosaminoglycan fraction released by the tissue during the 3 days of contact with IL-1β (10 mg/mil), the cartilage having been labeled beforehand with ^35 SO4.
as §2

[3] = system: sections of thoracic aorta from Fischer 344 rats; test: Angiogenesis in vitro, formation of pseudovessels in collagen gel; type: cell-based; conditions: Rattus norvegicus, 120 h; at 100 nM, five days of culture in serum-free medium; read-out: inhibition of formation of pseudovessels (vascular density)
Description: Sections of thoracic aorta from 8- to 12-week old male Fischer 344 rats are immersed in a collagen type I gel according to the Nicosia and Ottinetti method (1990). After five days of culture in serum-free medium, the preparations are examined under a microscope and the formation of pseudovessels is quantified in terms of vascular density after digitization and image analysis.

[4] = system: murine Lewis carcinoma cells (LLC); test: Invasion in vitro, Transwell filter coated with artificial extracellular matrix; type: cell-based; conditions: Mus musculus, 24 h, medium with serum, read-out: inhibition of cellular invasion
Protocol: The tests of invasion are carried out according to the following procedure: murine Lewis carcinoma cells (LLC) are deposited on the top face of a Transwell filter coated with an artificial extracellular matrix and are cultured in medium with serum for 24 h. The cells are then exposed to the vital stain 3-[4,5-dimethylthiazol-2-yl]-2,5-diphenyltetrazolium bromide and they are removed from the top face of the filter. The formazan crystals present under the filter are solubilized in a concentrated mixture of sodium dodecyl sulfate and dimethylformamide. The absorption at 540 nm of the corresponding colored mixture is then used to indirectly quantify cellular invasion.

ovarian cancers = conditions: Becket et al., DDT 1996; cited from earlier work

Row | Structure (SMILES) | inhibition at 1 µM (guinea pig cartilage [1]) | inhibition at 30 µM (guinea pig cartilage [2]) | inhibition at 0.1 µM [3] | inhibition at 1 µM [4] | antitumor activity in clinical trials (ovarian cancers) | collagen % protection at 10^-6 M (guinea pig cartilage [1]; 1 µM) | proteoglycans % protection at 3 × 10^-5M (guinea pig cartilage [2]; cartilage labeled with 35SO4, 30 µM)
1 | COc1ccc(S(=O)(=O)N2Cc3occc3C[C@@H]2C(=O)NO)cc1 [Example 28, (5R)-6-(4-Methoxybenzenesulfonyl)-4,5,6,7-tetrahydrofuro[2,3-c]pyridine-5-(N-hydroxy)carboxamide] | 79% | 34% | 85% | 44% | – | – | –
2 | COc1ccc(S(=O)(=O)N2Cc3sccc3C[C@@H]2C(=O)NO)cc1 [Example 15, (5R)-6-(4-Methoxybenzenesulfonyl)-4,5,6,7-tetrahydro-thieno[2,3-c]pyridine-5-(N-hydroxy)carboxamide] | 98% | 60% | – | – | – | – | –
3 | CNC(=O)[C@H](Cc1ccccc1)NC(=O)[C@H](CC(C)C)[C@H](CSc1cccs1)C(=O)NO [BB94] | – | – | – | – | proved active on ovarian cancers | – | –
4 | COc1ccc(S(=O)(=O)N2Cc3nc[nH]c3C[C@@H]2C(=O)NO)cc1 [Example 23, (6R)-5-(4-Methoxybenzenesulfonyl)-4,5,6,7-tetrahydro-imidazo[4,5-c]pyridine-6-(N-hydroxy)carboxamide Hydrochloride] | 88% | 24% | – | – | – | – | –
5 | CCCCCCCC1c2[nH]c3ccccc3c2C[C@H](C(=O)NO)N1S(=O)(=O)c1ccc(OC)cc1 (single isomer, unassigned) [Example 7] | – | – | – | – | – | 47% | 100%
6 | COc1ccc(S(=O)(=O)N2Cc3ccsc3C[C@@H]2C(=O)NO)cc1 [Example 1, (6R)-5-(4-Methoxybenzenesulfonyl)-4,5,6,7-tetrahydrothieno[3,2-c]pyridine-6-(N-hydroxy)carboxamide] | 98% | 45% | 87% | 45% | – | – | –
